Data taken from patent US20230190811A1, “COMPOSITIONS AND METHODS FOR USE IN THE TREATMENT OF CANCER” (Poseida Therapeutics, Inc., priority 2020, published 2023).
Like-named read-outs stand apart in the source and are kept apart here.

How the values were obtained:
[1] = GLP repeat dose intravenous toxicity study of rimiducid in rats; details: rat, in vivo
Excerpt: In vitro and in vivo studies have been conducted by Poseida with rimiducid and the iC9-based safety switch-containing CAR-T cell product P-BCMA-101 with similar results. A GLP repeat dose intravenous toxicity study in rats has recently been conducted by Poseida. […] (see Rimiducid Investigator's Brochure for further detail).

[2] = set-up: plasma level as % of maximal concentration: dose or concentration left out as unconfirmed; details: cited from earlier work
cells = details: cited from earlier work
[3] = test system: T cells carrying an iC9-based safety switch gene; details: cited from earlier work
[4] = test system: human pan T-cells with iC9 safety switch; assay: iC9 safety switch test: viability of modified T cells incubated with AP1903 (7-AAD flow cytometry); format: cell-based
Excerpt: Human pan T-cells were nucleofected using an Amaxa 4D nucleofector with one of four piggyBac transposons. Modified T cells receiving the “mock” condition were nucleofected with an empty piggyBac transposon. Modified T cells received either a piggyBac transposon containing a therapeutic agent alone (a sequence encoding a CARTyrin) or a piggyBac transposon containing an integrated iC9 sequence and a therapeutic agent (a sequence encoding a CARTyrin). To test the iC9 safety switch, each of the four modified T cells were incubated for 24 hours with 0, 0.1 nM, 1 nM, 10 nM, 100 nM or 1000 nM AP1903 (an induction agent for […]). Viability was assessed by flow cytometry using 7-aminoactinomycin D (7-AAD), a fluorescent intercalator, as a marker for cells undergoing apoptosis.

relapsed/refractory MM = details: standard of care; cited from earlier work
[5] = target: T1, B-cell maturation antigen (BCMA), human, expressed on cells (human, UniProt Q02223 1-184); assay: screen of 4300+ human proteins, each individually expressed in human HEK293 cells
T1 construct: whole, on cells; also called Tumor necrosis factor receptor superfamily member 17 (TNFRSF17)
T1 sequence (looked up): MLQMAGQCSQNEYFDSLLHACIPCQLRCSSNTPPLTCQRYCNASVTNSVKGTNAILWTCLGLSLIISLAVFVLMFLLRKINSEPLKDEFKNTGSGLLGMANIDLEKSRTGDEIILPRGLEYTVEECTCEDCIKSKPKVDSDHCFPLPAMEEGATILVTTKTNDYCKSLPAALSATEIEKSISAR
Excerpt: The Centyrin-Fc fusion protein was screened for binding against 4300+ human proteins. The vast majority of these human proteins represent cell surface membrane proteins, each individually expressed in human HEK293 cells.

For `CC[C@H](C(=O)N1CCCC[C@H]1C(=O)O[C@H](CCc1ccc(OC)c(OC)c1)c1cccc(OCC(=O)NCCNC(=O)COc2cccc([C@@H](CCc3ccc(OC)c(OC)c3)OC(=O)[C@@H]3CCCCN3C(=O)[C@@H](CC)c3cc(OC)c(OC)c(OC)c3)c2)c1)c1cc(OC)c(OC)c(OC)c1` (relative stereo) [AP1903, 2-Piperidinecarboxylic acid, 1-[(2S)-1-oxo-2-(3,4,5-trimethoxyphenyl)butyl]-, 1,2-ethanediylbis[imino(2-oxo-2,1-ethanediyl)oxy-3,1-phenylene[(1R)-3-(3,4-dimethoxyphenyl)propylidene]]ester, [2S-[1(R*),2R*[S*[S*[1(R*),2R*]]]]]-(9C1)], the toxic effect [1] is listed as “No noticeable toxic effect”, the NOAEL ([1]; repeated (three times) intravenous administration) is listed as greater than 15 mg/kg and the “plasma levels in relation to dose” value ([2]; 0.01-1.0 mg/kg) is listed as “directly proportional to dose”. For the same molecule, the “plasma level as % of maximal concentration” value (shortened to “plasma level as %”) ([2]; 2 hours post-dose) was roughly 7%, the “plasma level as %” value ([2]; 10 hours post-dose) was roughly 1% and the well-tolerated doses ([2]; Phase I study) was “up to 1 mg/kg”. The safety and tolerability ([2]; all dose levels 0.01-1.0 mg/kg) was “safe and well tolerated at all dose levels”, the “plasma level as %” value [2] was “approximately 18%” and the “mean Cmax” value ([2]; single dose infused IV over 2 hours, 0.01-1.0 mg/kg dose range) was 10 to 1275 ng/mL. The “amount needed in vitro for effective signaling of cells” value (cells) was 10 to 100 nM, the “modified T cells eliminated” value ([3]; 0.4 mg/kg 2-hour infusion, within 30 minutes following infusion) was 90% and the GVHD outcome ([3]; 0.4 mg/kg) was “GVHD completely resolved”. For the same molecule, the adverse events ([3]; clinical studies published to date) was “no significant adverse events”, the “further depletion of modified T cells” value ([3]; during the next 24 hours) was “further log depletion” and the pharmacokinetics ([3]; human, in vivo) was “consistent and linear pharmacokinetics”. The toxicity ([3]; within and above the effective dose range (0.01-1.0 mg/kg)) was “effectively no toxicity”, the “lowest concentration at which apoptosis is induced” value ([4]; cells containing iC9 construct, 24 hours incubation) was no more than 0.1 nM and the “shift of cell population to apoptotic quadrant with increasing induction agent” value ([4]; cells lacking the iC9 construct (CARTyrin only)) was “not observed”.

In the case of “daratumumab: recently approved standard of care agent (mAb) for multiple myeloma”, the response rate (relapsed/refractory MM) is given as no more than 30%.

B1: Centyrin-Fc fusion protein (the Centyrin from P-BCMA-101 fused to Fc) (Fc fusion)
chain: MLPAPKNLVVSRITEDSARLSWTAPDAAFDSFPIRYIETLIWGEAIWLDVPGSERSYDLTGLKPGTEYAVVITGVKGGRFSSPLVASFTT
notes: not shown: Fc part, any linker and the order of the parts are not described
B1: binds [5].
